{"source": "paper PMC11858205", "about": "“Radiolabeling and Preliminary In Vivo Evaluation of the Candidate CCR2 Targeting PET Radioligand [^11C]AZD2423” (Pharmaceuticals, 2025)", "key": {"CCR2 [1]": {"tested_on": "CCR2", "parameters": "method as in PMID 23523116, PMID 29913894", "conditions": "no method in this paper; read-out: CCR2 IC50 (affinity); cited from earlier work"}, "[2]": {"parameters": "method as in PMID 23523116, PMID 29913894", "conditions": "no method in this paper; cited from earlier work"}, "[3]": {"parameters": "method as in PMID 26116114", "conditions": "brain tissue in vitro; cited from earlier work"}, "[4]": {"assay": "Stability of the radioligand in formulation", "type": "physicochemical", "conditions": "9% ethanol in PBS, pH 7.4", "procedure": "Carbon-11 labeled radioligands for in vivo PET imaging studies are typically produced in giga-becquerel quantities. As our goal was to develop a synthesis methodology suitable for routine radioligand production, the [^11C]AZD2423 synthesis process was fully automated to improve its reliability and reproducibility. The complete process was performed using a previously described [^11C]CO prototype synthesis apparatus (GEMS, Uppsala, Sweden), which included the initial formation of the crude [^11C]AZD2423 product, followed by its isolation by semipreparative high-performance liquid chromatography (HPLC), solid-phase extraction (SPE), and sterile filtration to yield the formulated product. Using these conditions, [^11C]AZD2423 was prepared with radioactivities exceeding 1 GBq and the radiochemical purity (RCP) was greater than 99%. The synthesis process took approximately 40 min, and the molar activity (Am) at the time of injection ranged from 15 to 20 GBq/μmol (405 to 540 Ci/mmol). […] The average radiochemical yield for the synthesis of [^11C]AZD2423 was 7.4 ± 0.6% (n = 4, relative to the [^11C]CO2 at the start of synthesis). The identity of the labeled compound was verified by co-injecting it with a reference standard."}, "CCR2 [5]": {"target": "T1, CCR2 (Macaca mulatta, UniProt O18793)", "T1 construct": "from tissue; host or cells: living rhesus monkeys: brain, thyroid gland, parotid gland, submandibular gland", "T1 sequence (O18793 1-360)": "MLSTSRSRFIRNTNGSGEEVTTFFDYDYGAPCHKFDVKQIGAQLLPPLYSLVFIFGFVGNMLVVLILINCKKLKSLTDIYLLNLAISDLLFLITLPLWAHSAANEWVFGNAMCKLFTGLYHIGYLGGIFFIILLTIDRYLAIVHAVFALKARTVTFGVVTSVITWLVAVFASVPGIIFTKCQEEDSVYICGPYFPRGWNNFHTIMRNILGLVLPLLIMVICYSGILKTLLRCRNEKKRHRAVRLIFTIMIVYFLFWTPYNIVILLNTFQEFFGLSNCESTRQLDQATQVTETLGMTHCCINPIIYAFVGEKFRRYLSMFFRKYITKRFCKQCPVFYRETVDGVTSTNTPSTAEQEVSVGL", "assay": "PET imaging in non-human primates at baseline and after pretreatment with AZD2423", "type": "in vivo, rhesus monkeys", "conditions": "for SUVpeak brain: iv; for Average VT parotid gland / Average VT thyroid gland: two-tissue compartment analysis", "procedure": "To evaluate the brain exposure and regional distribution of [^11C]AZD2423 in non-human primate (NHP) brains, PET imaging studies were carried out. Thus, two 123 min dynamic brain PET measurements were performed at baseline and after pretreatment with unlabeled AZD2423 (3 mg/kg), respectively.\nPET experiments were conducted on two anesthetized healthy rhesus monkeys weighing 5.3 and 4.7 kg. The study received approval from the Stockholm Animal Research Ethical Committee (Dnr. N452/11) and is comprehensively described in Dahl et al.. Anesthesia was induced via an intramuscular injection of ketamine hydrochloride (approximately 10 mg/kg, Ketalar, Pfizer AB, Stockholm, Sweden) and maintained with a mixture of sevoflurane (2–8%, Abbott Scandinavia AB, Solna, Sweden), oxygen (around 40%), and medical air following endotracheal intubation. The anesthesia level was continuously monitored during the experiment. The head was stabilized using a fixation device, and the body temperature was regulated with a Bair Hugger model 505 (Arizant Healthcare, St. Paul, MN, USA), with continuous monitoring via an esophageal thermometer. ECG, heart rate, blood pressure, respiratory rate, and oxygen saturation were all continuously monitored throughout the experiments.\nTwo PET measurements were performed on the same experimental day in each of the two monkeys. Baseline PET measurements were conducted using [^11C]AZD2423 with doses of 164 MBq and 157 MBq. A pretreatment PET measurement was also performed, during which an infusion of unlabeled AZD2423 (3.0 mg/kg) occurred over 10 min, starting 30 min before the injection of [^11C]AZD2423 (90 MBq and 158 MBq). In each PET experiment, the radioligand was administered as an intravenous bolus injection over 5 s, coinciding with the start of PET data acquisition. Radioactivity in the brain was continuously measured for 123 min using the high-resolution research tomograph (HRRT; Siemens Molecular Imaging, Knoxville, TN, USA), following a preprogrammed sequence of 34 frames. Arterial blood samples were collected at specified time points (4, 15, 30, 45, and 90 min) and analyzed for radioactivity in blood and plasma, as well as for the presence of the remaining parent compound, [^11C]AZD2423.\nThe Regions of Interest (ROIs) were delineated manually on MRI images of each NHP for the whole brain, thyroid gland, parotid gland, and submandibular gland. The summed PET images of the entire duration were co-registered with the MRI image of the individual NHP. After applying the co-registration parameters to the dynamic PET data, time–activity curves were generated for all ROIs for each PET measurement. The average SUV was calculated for each ROI. Target occupancy was estimated using the volume of distribution (VT) calculated by a two-tissue compartment model (2TC) with metabolite-corrected plasma radioactivity."}, "[6]": {"assay": "Radiometabolite analysis in arterial plasma", "type": "in vivo, rhesus monkeys", "procedure": "To measure parent radioligand and radiometabolites in plasma, discrete arterial blood samples were drawn at five time points after the injection of [^11C]AZD2423. The radioligand was metabolized rather slowly (Figure 5). At 10 min after injection, approximately 80% of the radioactivity in plasma represented parent radioligand, decreasing to approximately 60% at 90 min. Most radiometabolites detected in plasma eluted with a retention time (tR) of 2.1–2.7 min and were thus less lipophilic than [^11C]AZD2423 (tR = 3.0 min). However, one metabolite with a longer retention time (tR = 3.5 min) was formed (see Supporting Information). These metabolites were not identified and further work would be required to fully characterize these unknown radiometabolites. […]\nTwo PET measurements were performed on the same experimental day in each of the two monkeys. […] Radioactivity in the brain was continuously measured for 123 min using the high-resolution research tomograph (HRRT; Siemens Molecular Imaging, Knoxville, TN, USA), following a preprogrammed sequence of 34 frames. Arterial blood samples were collected at specified time points (4, 15, 30, 45, and 90 min) and analyzed for radioactivity in blood and plasma, as well as for the presence of the remaining parent compound, [^11C]AZD2423.\nMethod description and representative radioactivity HPLC trace for radiometabolite analysis. […]"}, "CCR1": {"tested_on": "CCR1", "parameters": "method as in PMID 23523116, PMID 29913894", "conditions": "no method in this paper; cited from earlier work"}, "CCR5": {"tested_on": "CCR5", "parameters": "method as in PMID 23523116, PMID 29913894", "conditions": "no method in this paper; cited from earlier work"}, "Other GPCR": {"tested_on": "Other GPCR", "parameters": "method as in PMID 23523116, PMID 29913894", "conditions": "no method in this paper; cited from earlier work"}, "CCR2 [7]": {"tested_on": "CCR2", "parameters": "method as in PMID 33205603", "conditions": "cited from earlier work"}, "[8]": {"conditions": "pretreatment AZD2423 3 mg/kg relative to baseline"}, "[9]": {"conditions": "pretreatment AZD2423 3.0 mg/kg relative to baseline"}, "[10]": {"conditions": "pretreatment AZD2423 3 mg/kg, n = 2"}}, "data": [{"smiles": "CC(C)(C)N1CCNC(C(=O)N2CCN(C(=O)Nc3ccc(Cl)c(F)c3)CC2)C1", "note": "(stereo not drawn) [AZD2423]", "values": [{"measurement": "IC50", "setting": "CCR2 [1]", "result": 2.6, "unit": "nM"}, {"measurement": "LogD", "setting": "[2]", "result": 1.85}, {"measurement": "Fu (brain) / brain slice distribution", "setting": "[3]", "result": 0.045}]}, {"smiles": "CC(C)(C)N1CCNC(C(=O)N2CCN([11C](=O)Nc3ccc(Cl)c(F)c3)CC2)C1", "note": "(stereo not drawn) [[^11C]AZD2423]", "values": [{"measurement": "stability in formulation", "setting": "[4]", "result": "up to 60 min"}, {"measurement": "SUVpeak brain", "setting": "CCR2 [5]; NHP, after pretreatment with unlabeled AZD2423 3 mg/kg, n = 2", "result": 0.4}, {"measurement": "SUVpeak brain", "setting": "CCR2 [5]; NHP, baseline, n = 2", "result": 0.4}, {"measurement": "SUVpeak parotid gland", "setting": "CCR2 [5]; NHP, baseline, n = 2", "result": 3.4}, {"measurement": "SUVpeak submandibular gland", "setting": "CCR2 [5]; NHP, baseline, n = 2", "result": 4.4}, {"measurement": "SUVpeak thyroid gland", "setting": "CCR2 [5]; NHP, baseline, n = 2", "result": 3.3}, {"measurement": "Average VT parotid gland", "setting": "CCR2 [5]; baseline, n = 2", "result": 111.1}, {"measurement": "Average VT thyroid gland", "setting": "CCR2 [5]; baseline, n = 2", "result": 53.1}, {"measurement": "Percentage decrease of VT parotid gland", "setting": "CCR2 [5]; [8]", "result": 62.6, "unit": "%"}, {"measurement": "Percentage decrease of VT thyroid gland", "setting": "CCR2 [5]; [8]", "result": 63.4, "unit": "%"}, {"measurement": "Percentage reduction of binding in the parotid gland (AUC ratio)", "setting": "CCR2 [5]; [9]", "result": 51.2, "unit": "%"}, {"measurement": "Percentage reduction of binding in the submandibular gland (AUC ratio)", "setting": "CCR2 [5]; [9]", "result": 49, "unit": "%"}, {"measurement": "Average VT parotid gland", "setting": "CCR2 [5]; [10]", "result": 41.6}, {"measurement": "Average VT thyroid gland", "setting": "CCR2 [5]; [10]", "result": 19.4}, {"measurement": "Parent radioligand, share of radioactivity in plasma", "setting": "[6]; 10 min after iv injection", "result": "approximately 80%"}, {"measurement": "Parent radioligand, share of radioactivity in plasma", "setting": "[6]; 90 min after iv injection", "result": "approximately 60%"}, {"measurement": "IC50", "setting": "CCR2 [1]", "result": 2.6, "unit": "nM"}, {"measurement": "IC50", "setting": "CCR1", "result": "> 10000", "unit": "nM"}, {"measurement": "IC50", "setting": "CCR5", "result": "> 510", "unit": "nM"}, {"measurement": "Selectivity over other GPCR", "setting": "Other GPCR", "result": "> 500", "unit": "fold"}, {"measurement": "LogD", "setting": "[2]", "result": 1.85}, {"measurement": "pKa", "setting": "[2]", "result": 7.9}, {"measurement": "Fu (brain) / brain slice distribution", "setting": "[3]", "result": 0.045}]}, {"smiles": "CN(CCc1ccc(NC(=O)C2=Cc3cc(-c4ccc(OCCCCC[18F])cc4)ccc3CCC2)cc1)C1CCOCC1", "note": "[[^18F]6b]", "values": [{"measurement": "in vitro affinity to CCR2", "setting": "CCR2 [7]", "result": 14, "unit": "nM"}]}]}
